Marks after values point to notes of the source that are not given here.
Columns and labels:
[1] = test system: cultured cerebral neurons; test: NMDA induces neuron injury in primary cultured neurons; type: cell-based, rat; conditions: 12 h; for mortality: NMDA 50 mmol/L
[2] = test system: cerebral hemorrhage in rats induced by collagenase; test: ICH model induced by collagenase: NE in brain tissue by ELISA; type: in vivo, Wistar rats
Source text: Rats in each group were anesthetized by chloral hydrate, decollated rapidly and the brains were taken out. The brain tissue around the hole was cut and procured, weighed precisely, and made into a 10% tissue homogenate using a glass homogenizer in an ice bath environment with physiological saline as homogenized medium, the supernatant of which was taken to be determined the NE activity using ELISA method.

[3] = test system: infective brain edema of rats (pertussis bacteria liquid); test: infective cerebral edema: IL-1β, TNF-α (ELISA) and NO (Griess) in cerebral tissue; type: in vivo, SD rats; conditions: rat cerebral tissue, 4 h
Experimental: Determine the content of IL-1β, TNF-α and NO by using ELISA and Griess method.
Model preparation was same as that of example 4. Piperphentonamine acetate group was intraperitoneally injected with 0.5 mg/kg daily for 2 days 48 h before the injection of pertussis bacterial liquid. Rats in each group were decollated after being injected with bacterial liquid or saline 4 h. ELISA method and Griess method were used to measure the content of IL-1β, TNF-α and NO in brain homogenate of infectious brain edema model of rats.

[4] = test system: cerebral hemorrhage in rats induced by collagenase; test: cerebral hemorrhage (ICH) model induced by collagenase: neurology score; type: in vivo, Wistar rats
Experimental: (§1) Animals are randomly divided into five groups: sham operation 24 h group; cerebral hemorrhage (Intracerebral Haemorrhage, ICH)+physiological saline group (model); ICH+piperphentonamine hydrochloride (JBTA, 2 mg/kg) group, called as high dose group (h); ICH+piperphentonamine hydrochloride (JBTA, 0.5 mg/kg) group, called as low dose group (1); ICH+nimodipine (Nim, 0.5 mg/kg) group. The last four groups are divided into 4 h, 8 h, 12 h, 24 h as four time subgroups respectively. Physiological saline solution, piperphentonamine hydrochloride and nimodipine are intravenously injected from rat tail before the ICH model is established for 30 minutes, once a day. Injecting slowly, the total amount of drug liquid is controlled in 1 ml/200 g body weight: physiological saline solution also being administered in 1 ml/200 g body weight. Each group has 7 Wistar rats.
The specific steps are as following: after the experimental rats are anesthetized by injecting chloral hydrate (350 mg/kg) in intraperitoneal, and being supinely immobilized in a stereotaxic instrument, and make the rat anterior fontanelle and posterior fontanelle in the same plane according to localization method reported by BAO Xinmin, etc. Being locally disinfected by iodine, incising in the midmost of scalp, scissoring the periosteum, exposing the anterior fontanelle, drilling a 1 mm diameter hole with thickness close to duramater in 3 mm left to the midline by number five needle. Inserting needle along the hole by the micro syringe fixed on a stereotaxic, the depth of needle insertion is 5.8 mm (i.e., the caudate nucleus position), slowly injecting collagenase VI 0.5 U. Injection time is 3 min, keeping for 5 min after injection, then pull the needle out, suturing the skin, and putting the rat into cage and feed. Inserting the needle and not injecting drugs in sham operation group, the remaining operations is the same as the above.
After animals wake up, scoring nerve function defect of each group immediately according to the grading classification standards of nerve defect reported by Bedersog (litter improved).
Choosing the animals with the score of 3 and more into the experiment, the animals are bred in different cages, eat and drink normally. Temperature is controlled in 20 to 25° C., score in 4 h, 8 h, 12 h, 24 h after establishment of the model.
(§2) Divide the animals randomly into five groups: sham operation (sham) 24 h group; ICH+normal saline group (model); ICH+piperphentonamine maleate (4 mg/kg) group, namely high dose group (h); ICH+piperphentonamine maleate (2 mg/kg) group, namely low dose group (1); ICH+nimodipine (0.5 mg/kg) group. The last four groups were divided into four time subgroup of 4 h, 8 h, 12 h and 24 h. Physiological solution, piperphentonamine maleate and nimodipine were injected intravenous from rat tail vein 30 minutes before the ICH model made, once a day. Inject slowly, the total amount of drug liquid was controlled in 1 ml/200 g body weight: normal saline was also administered in 1 ml/200 g body weight. Each group has seven Wistar rats.

[5] = test system: cerebral hemorrhage in rats induced by collagenase; test: ICH model induced by collagenase: brain water content (BWC); type: in vivo, Wistar rats
Experimental: as §1
Observing the influence of piperphentonamine hydrochloride on the brain water content of intracerebral hemorrhage in rats in 4 h, 8 h, 12 h, 24 h, the animals of the different groups is anesthetized by chloral hydrate at predetermined time point, and decollating and taking the brain rapidly, putting the brain tissue on a filter paper wetted by saline solution to prevent water evaporating. Removing the leptomeninges and blood, cutting and taking the front half portion of brain tissue centered by the hole for the insertion needle, weighing precisely (accurate to 0.1 mg). It is controlled in 5 min to take the brain to finish weigh. Then putting in 95° C. constant temperature oven for 24 h, weighing the dry weight. The brain water content is calculated according to Blliot formula: BWC=(wet weight−dry weight)/wet weight×100%.
as §2

[6] = 0.5 mg/kg iv 30 min before ICH, 4 h
[7] = 0.5 mg/kg iv 30 min before ICH, 8 h
[8] = 0.5 mg/kg iv 30 min before ICH, 12 h
[9] = 0.5 mg/kg iv 30 min before ICH, 24 h
[10] = 2 mg/kg iv 30 min before ICH, 4 h
[11] = 2 mg/kg iv 30 min before ICH, 8 h
[12] = 2 mg/kg iv 30 min before ICH, 12 h
[13] = 2 mg/kg iv 30 min before ICH, 24 h

CN(CCC(=O)/C=C/c1ccc(O)cc1)CCc1ccc2c(c1)OCO2.Cl [piperphentonamine hydrochloride, Piperphentonamine hydrochloride]
mortality ([1]; drug 10 mmol/L, hydrochloride): 38% | mortality ([1]; drug 10 mmol/L, listed as JBTA2, hydrochloride): 38% | mortality ([1]; drug 100 mmol/L, hydrochloride): 24% | mortality ([1]; drug 100 mmol/L, listed as JBTA2, hydrochloride): 24% | morphological change of culture neuron ([1]; drug 10): the degree of cell injury reduces significantly | NE ([2]; 2 mg/kg, ICH rat brain tissue homogenate): 1.61 ± 0.044^a ng/ml | brain tissue NE activity ([2]; high and low dose group (2, 0.5 mg/kg)): could decrease the brain tissue NE activity significantly | IL-1β [3]: 318.4 ± 43.8^2)3) pg/g | NO [3]: 86.1 ± 5.9^2)3) nmol/g | TNF-α [3]: 499.7 ± 134.9^2)3) pg/g | neurological score [4, 6]: 4.5 ± 0.87 | neurological score [4, 7]: 4.29 ± 1.02 | neurological score [4, 8]: 3.65 ± 1.19 | neurological score [4, 9]: 3.21 ± 1.61 | neurological score [4, 10]: 4.07 ± 0.74 | neurological score [4, 11]: 3.86 ± 1.19 | neurological score [4, 12]: 2.36 ± 0.8*^Δ | neurological score [4, 13]: 1.71 ± 0.57**^Δ | brain water content (%) [5, 6]: 79.90 ± 0.84^Δ % | brain water content (%) [5, 7]: 81.19 ± 0.78^ΔΔ % | brain water content (%) [5, 8]: 82.70 ± 0.76^ΔΔ % | brain water content (%) [5, 9]: 84.98 ± 0.65^ΔΔ % | brain water content (%) [5, 10]: 79.29 ± 0.69 % | brain water content (%) [5, 11]: 79.73 ± 0.53^Δ** % | brain water content (%) [5, 12]: 80.75 ± 0.19^ΔΔ** % | brain water content (%) [5, 13]: 82.38 ± 0.73^ΔΔ** %

From US8916607B2, “Use of piperphentonamine or salts thereof in manufacture of medicaments for treating brain diseases” (Guangzhou Municipal Zhongwei Biotechnology Limited Company, priority 2009, dated 2014)
